“And” between values parts separate entries of the source, which are not always exact repeats. Identical values can stand only once.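 A five-concentration, 48-hour dose response in 96-well plates underlies each endpoint, interpolated linearly between surrounding concentrations. GI50: concentration for 50% inhibition of growth. TGI denotes the concentration required for complete inhibition of growth.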
Experiments:
Test in all cases: inhibition of tumour cell growth, NCI panel, 48 h
786-0 renal = tested on: 786-0 renal
A498 renal = tested on: A498 renal
A549 NSCLC = tested on: A549 NSCLC
ACHN renal = tested on: ACHN renal
CAKI-1 renal = tested on: CAKI-1 renal
CCRF-CEM leukemia = tested on: CCRF-CEM leukemia
COLO 205 colon = tested on: COLO 205 colon
DLD-1 colon = tested on: DLD-1 colon
DMS 114 small cell lung = tested on: DMS 114 small cell lung
DMS 273 small cell lung = tested on: DMS 273 small cell lung
EKVX NSCLC = tested on: EKVX NSCLC
HCT-116 colon = tested on: HCT-116 colon
HCT-15 colon = tested on: HCT-15 colon
HL-60(TB) leukemia = tested on: HL-60(TB) leukemia
HOP-62 NSCLC = tested on: HOP-62 NSCLC
HOP-92 NSCLC = tested on: HOP-92 NSCLC
HT29 colon = tested on: HT29 colon
IGROV1 ovarian = tested on: IGROV1 ovarian
K-562 leukemia = tested on: K-562 leukemia
KM20L2 colon = tested on: KM20L2 colon
LOX IMVI melanoma = tested on: LOX IMVI melanoma
LXFL 529 NSCLC = tested on: LXFL 529 NSCLC
M14 melanoma = tested on: M14 melanoma
M19-MEL melanoma = tested on: M19-MEL melanoma
MALME-3M melanoma = tested on: MALME-3M melanoma
NCI-H226 lung = tested on: NCI-H226 lung
NCI-H23 lung = tested on: NCI-H23 lung
NCI-H460 lung = tested on: NCI-H460 lung
NCI-H522 lung = tested on: NCI-H522 lung
OVCAR-3 ovarian = tested on: OVCAR-3 ovarian
OVCAR-4 ovarian = tested on: OVCAR-4 ovarian
OVCAR-5 ovarian = tested on: OVCAR-5 ovarian
OVCAR-8 ovarian = tested on: OVCAR-8 ovarian
RPMI-8226 leukemia = tested on: RPMI-8226 leukemia
SF-268 CNS = tested on: SF-268 CNS
SF-295 CNS = tested on: SF-295 CNS
SF-539 CNS = tested on: SF-539 CNS
SK-MEL-2 melanoma = tested on: SK-MEL-2 melanoma
SK-MEL-28 melanoma = tested on: SK-MEL-28 melanoma
SK-MEL-5 melanoma = tested on: SK-MEL-5 melanoma
SK-OV-3 ovarian = tested on: SK-OV-3 ovarian
SN12C renal = tested on: SN12C renal
SNB-19 CNS = tested on: SNB-19 CNS
SNB-75 CNS = tested on: SNB-75 CNS
SNB-78 CNS = tested on: SNB-78 CNS
SW-620 colon = tested on: SW-620 colon
TK-10 renal = tested on: TK-10 renal
U251 CNS = tested on: U251 CNS
UACC-257 melanoma = tested on: UACC-257 melanoma
UACC-62 melanoma = tested on: UACC-62 melanoma
UO-31 renal = tested on: UO-31 renal
XF 498 CNS = tested on: XF 498 CNS
BT-549 breast = tested on: BT-549 breast
DU-145 prostate = tested on: DU-145 prostate
HCC-2998 colon = tested on: HCC-2998 colon
HS 578T breast = tested on: HS 578T breast
KM12 colon = tested on: KM12 colon
MCF7 breast = tested on: MCF7 breast
MDA-MB-231 breast = tested on: MDA-MB-231 breast
MDA-MB-435 = tested on: MDA-MB-435
MDA-N = tested on: MDA-N
MOLT-4 leukemia = tested on: MOLT-4 leukemia
NCI/ADR-RES ovarian = tested on: NCI/ADR-RES ovarian
SR leukemia = tested on: SR leukemia
T-47D breast = tested on: T-47D breast

Cc1ccc(N2C(=O)/C(=C3\Sc4c(nc(C)[nH]c4=O)N3c3ccccc3)SC2=S)cc1
TGI (786-0 renal): 25300 nM
TGI (A498 renal): 88200 nM
TGI (A549 NSCLC): > 100000 nM
TGI (ACHN renal): > 100000 nM
TGI (CAKI-1 renal): > 100000 nM
TGI (CCRF-CEM leukemia): > 100000 nM
TGI (COLO 205 colon): > 100000 nM
TGI (DLD-1 colon): > 100000 nM
TGI (DMS 114 small cell lung): > 100000 nM
TGI (DMS 273 small cell lung): > 100000 nM
TGI (EKVX NSCLC): > 100000 nM
TGI (HCT-116 colon): > 100000 nM
TGI (HCT-15 colon): > 100000 nM
TGI (HL-60(TB) leukemia): > 100000 nM
TGI (HOP-62 NSCLC): 25900 nM
TGI (HOP-92 NSCLC): 97300 nM
TGI (HT29 colon): > 100000 nM
TGI (IGROV1 ovarian): > 100000 nM
TGI (K-562 leukemia): 95800 nM
TGI (KM20L2 colon): > 100000 nM
TGI (LOX IMVI melanoma): 70700 nM
TGI (LXFL 529 NSCLC): > 100000 nM
TGI (M14 melanoma): > 100000 nM
TGI (M19-MEL melanoma): > 100000 nM
TGI (MALME-3M melanoma): > 100000 nM
TGI (NCI-H226 lung): 86600 nM
TGI (NCI-H23 lung): 56700 nM
TGI (NCI-H460 lung): > 100000 nM
TGI (NCI-H522 lung): > 100000 nM
TGI (OVCAR-3 ovarian): 47700 nM
TGI (OVCAR-4 ovarian): > 100000 nM
TGI (OVCAR-5 ovarian): > 100000 nM
TGI (OVCAR-8 ovarian): > 100000 nM
TGI (RPMI-8226 leukemia): > 100000 nM
TGI (SF-268 CNS): > 100000 nM
TGI (SF-295 CNS): 54800 nM
TGI (SF-539 CNS): 29500 nM
TGI (SK-MEL-2 melanoma): > 100000 nM
TGI (SK-MEL-28 melanoma): > 100000 nM
TGI (SK-MEL-5 melanoma): > 100000 nM
TGI (SK-OV-3 ovarian): 53500 nM
TGI (SN12C renal): > 100000 nM
TGI (SNB-19 CNS): > 100000 nM
TGI (SNB-75 CNS): 56400 nM
TGI (SNB-78 CNS): > 100000 nM
TGI (SW-620 colon): > 100000 nM
TGI (TK-10 renal): 59200 nM
TGI (U251 CNS): 37900 nM
TGI (UACC-257 melanoma): > 100000 nM
TGI (UACC-62 melanoma): > 100000 nM
TGI (UO-31 renal): 92100 nM
TGI (XF 498 CNS): 51800 nM

CC(=O)c1cccc(NC2C(N)C(NC(=O)N(C)C)(C(C)O)C(C)(O)C2(O)COC(=O)c2c(C)cccc2O)c1 (stereo not given)
TGI (786-0 renal): 14.6 nM
TGI (A498 renal): < 1 nM
TGI (A549 NSCLC): 347 nM
TGI (ACHN renal): 334 nM and 539 nM
TGI (BT-549 breast): 12 nM
TGI (CAKI-1 renal): 23.5 nM
TGI (CCRF-CEM leukemia): 205 nM
TGI (DMS 114 small cell lung): 85.5 nM
TGI (DU-145 prostate): 20.2 nM
TGI (EKVX NSCLC): 80 nM
TGI (HCC-2998 colon): 2.95 nM
TGI (HCT-116 colon): 43.7 nM and 185 nM
TGI (HCT-15 colon): 1010 nM
TGI (HL-60(TB) leukemia): < 1 nM
TGI (HOP-62 NSCLC): 78.6 nM
TGI (HS 578T breast): 12.2 nM
TGI (HT29 colon): 1080 nM and 113 nM
TGI (K-562 leukemia): 150 nM
TGI (KM12 colon): 213 nM and 164 nM
TGI (KM20L2 colon): 372 nM
TGI (LXFL 529 NSCLC): 1010 nM
TGI (M14 melanoma): 300 nM
TGI (M19-MEL melanoma): 203 nM
TGI (MCF7 breast): 1130 nM
TGI (MDA-MB-231 breast): 208 nM
TGI (MDA-MB-435): 15.7 nM
TGI (MDA-N): 13.5 nM
TGI (MOLT-4 leukemia): 835 nM
TGI (NCI-H226 lung): 1.41 nM
TGI (NCI-H522 lung): 64.1 nM
TGI (NCI/ADR-RES ovarian): 591 nM
TGI (OVCAR-3 ovarian): 262 nM
TGI (OVCAR-5 ovarian): 45.7 nM and 186 nM
TGI (OVCAR-8 ovarian): 131 nM
GI50 (SF-268 CNS): < 1 nM
TGI (SF-295 CNS): 164 nM and 231 nM
TGI (SF-539 CNS): < 1 nM
TGI (SK-MEL-2 melanoma): 18.6 nM
TGI (SK-MEL-28 melanoma): 1040 nM and 532 nM
TGI (SK-MEL-5 melanoma): 22.7 nM
TGI (SK-OV-3 ovarian): 80.8 nM and 205 nM
TGI (SN12C renal): 106 nM
TGI (SNB-19 CNS): 99.2 nM and 936 nM
GI50 (SNB-75 CNS): < 1 nM
TGI (SNB-78 CNS): 54.1 nM
TGI (SR leukemia): > 100000 nM
TGI (SW-620 colon): 1750 nM
TGI (T-47D breast): 8.34 nM
TGI (TK-10 renal): 118 nM
TGI (U251 CNS): 109 nM
GI50 (UACC-257 melanoma): 31.4 nM
TGI (UACC-62 melanoma): 119 nM
TGI (UO-31 renal): 194 nM and 257 nM

Source: PubChem BioAssay (NCI)
